Data taken from US8980887B2, “2-aryl imidazo[1,2-a]pyridine-3-acetamide derivatives, preparation methods and uses thereof” (Institute of Pharmacology, priority 2010, dated 2015).

Legend:
[1] = target: TSPO protein separated and purified from rat heart (Rattus norvegicus (Rat), UniProt P16257); experiment: TSPO and radioligand (3H-PK11195) competitive binding test; details: for Inhibition rate (%): n = 6 times; for IC50 / Ki: 9 gradient concentrations, plotting and fitting
Description: In the present test, TSPO protein separated and purified from rat heart was used as screening target, via competitive binding test with radioligand (^3H-PK11195), to screen TSPO ligand compounds.
Wister rats, 220-260 g, female and male, were sacrificed by decapitation and the rat heart were rapidly separated, weighed and to which homogenized in 10 times volume of Tris-HCl buffer solution (50 mM Tris-HCl, 5 mM MgCl2, 1 mM EDTA, 0.5% (W/V) BSA, 1 mM PMSF, 3 μg/ml proteinase inhibitor, 0.1% NaN3, 0.32M sucrose, pH 7.4) at 15,000 rpm for 30 s, total 5 times. The homogenate was centrifuged under 1000×g for 10 minutes and the supernatant was then centrifuged under 30000×g for 20 minutes. The precipitate was collected, and resuspended with 10 times volume of Tris-HCl buffer solution (pH 7.4) relative to the original weight, then centrifuged under 30000×g for 20 minutes. The precipitate was washed with the same buffer solution, centrifuged under 30000×g for 20 minutes and the precipitate was suspended with the above buffer solution. After sub-packaged (the whole operation procedures were performed under ice bath), the product was stored at −80° C.
3) Competitive Binding Test of Drug to the Receptor (Rat Heart TSPO) and Radioligand (^3H-PK11195):
(1) tubes were placed in reaction condition of 30° C.
(2) all tubes were added with 20 μg of receptor protein in order;
(3) the test tubes were added in order with 20 μL of drugs in certain concentrations;
(4) the non-specific binding tubes were added with 20 μL of non-tagged ligand (PK11195), the final concentration of the non-tagged ligand was 0.1 mM, pre-reacted for 30 min;
(5) all tubes were added in order with 25 μL ^3H-PK11195, the final concentration of the labeled ligand was 1.5 nM;
(6) Tris-HCl Buffer pH7.4 was used to complement the reaction volumes of all tubes to reach 200 μL;
(7) the reaction was performed under 30° C. reaction condition for 1 h;
(8) Then samples were applied to 49-type glass fibre filter, vacuum suction filtered, then washed with 2 ml ice-cold Tris-HCl buffer solution (50 mM Tris-HCl buffer solution, 1 mM EDTA, 5 mM MgCl2, 1 mM PMSF, 0.1% NaN3, 3 μg/ml proteinase inhibitor, pH 7.4). The filter was dried and placed in a scintillation vial with 1 ml of scintillation fluid. The radio-activity was measured by a scintillation counter.

Compound	Inhibition rate (%) ([1]; 1 × 10^−5M)	Inhibition rate (%) ([1]; 1 × 10^−7M)	Inhibition rate (%) ([1]; 1 × 10^−9M)	melting point	IC50 [1] [nM]	Ki [1] [nM]
CCN(Cc1cccnc1)C(=O)Cc1c(-c2ccc(C)cc2)nc2cc(C)ccn12.Cl [Compound 15, N-ethyl-N-(3-pyridinylmethyl)-2-(4-methylphenyl)-7-methylimidazo[1,2-a]pyridine-3-acetamide.hydrochloride]	90	15	0	251 to 253 °C		
COCCN(Cc1cccnc1)C(=O)Cc1c(-c2ccc(OC)cc2)nc2cc(C)ccn12.Cl [Compound 24, N-(2-methoxyethyl)-N-(3-pyridinylmethyl)-2-(4-methoxyphenyl)-7-methylimidazo[1,2-a]pyridine-3-acetamide.hydrochloride]	17	3	0	243 to 245 °C		
CCN(Cc1ccccc1)C(=O)Cc1c(-c2ccc(Cl)c(Cl)c2)nc2cc(C)ccn12 [Compound 7, N-benzyl-N-ethyl-2-(3,4-dichlorophenyl)-7-methylimidazo[1,2-a]pyridine-3-acetamide]	99	72	10	180 to 182 °C	116	49.2
COCCN(Cc1cccnc1)C(=O)Cc1c(-c2ccc(Cl)cc2)nc2cc(C)ccn12.Cl [Compound 6, N-(2-methoxyethyl)-N-(3-pyridinylmethyl)-2-(4-chlorophenyl)-7-methylimidazo[1,2-a]pyridine-3-acetamide.hydrochloride]	70	0	0	234 to 235 °C		
CCN(Cc1cccnc1)C(=O)Cc1c(-c2ccc(OC)cc2)nc2cc(C)ccn12.Cl [Compound 21, N-ethyl-N-(3-pyridinylmethyl)-2-(4-methoxyphenyl)-7-methylimidazo[1,2-a]pyridine-3-acetamide.hydrochloride]	43	11	0	230 to 232 °C		
CCN(Cc1ccccn1)C(=O)Cc1c(-c2ccc(C)cc2)nc2cc(C)ccn12.Cl [Compound 14, N-ethyl-N-(2-pyridinylmethyl)-2-(4-methylphenyl)-7-methylimidazo[1,2-a]pyridine-3-acetamide.hydrochloride]	97	66	14	218 to 220 °C	91	38.7
CCN(Cc1ccncc1)C(=O)Cc1c(-c2ccc(Cl)cc2)nc2ccc(C)cn12.Cl [Compound 28, N-ethyl-N-(4-pyridinylmethyl)-2-(4-chlorophenyl)-6-methylimidazo[1,2-a]pyridine-3-acetamide.hydrochloride]	84	33	0	229 to 231 °C		
CCN(Cc1ccccc1)C(=O)Cc1c(-c2ccc(Cl)cc2)nc2cc(C)ccn12 [Compound 1, N-benzyl-N-ethyl-2-(4-chlorophenyl)-7-methylimidazo[1,2-a]pyridine-3-acetamide]	100	87	12	192 to 193 °C		
COCCN(Cc1cccnc1)C(=O)Cc1c(-c2ccc(Cl)c(Cl)c2)nc2cc(C)ccn12.Cl [Compound 12, N-(2-methoxyethyl)-N-(3-pyridinylmethyl)-2-(3,4-dichlorophenyl)-7-methylimidazo[1,2-a]pyridine-3-acetamide.hydrochloride]	80	20	0	235 to 237 °C		
COCCN(CCN1CCOCC1)C(=O)Cc1c(-c2ccc(C)cc2)nc2cc(C)ccn12.Cl [Compound 25, N-(2-methoxyethyl)-N-(2-morpholinylethyl)-2-(4-methylphenyl)-7-methylimidazo[1,2-a]pyridine-3-acetamide.hydrochloride]	31	0	0	165 to 167 °C		
COCCN(Cc1ccccn1)C(=O)Cc1c(-c2ccc(OC)cc2)nc2cc(C)ccn12.Cl [Compound 23, N-(2-methoxyethyl)-N-(2-pyridinylmethyl)-2-(4-methoxyphenyl)-7-methylimidazo[1,2-a]pyridine-3-acetamide.hydrochloride]	85	2	3	214 to 216 °C (dec.)		
CCN(Cc1ccncc1)C(=O)Cc1c(-c2ccc(OC)cc2)nc2cc(C)ccn12.Cl [Compound 22, N-ethyl-N-(4-pyridinylmethyl)-2-(4-methoxyphenyl)-7-methylimidazo[1,2-a]pyridine-3-acetamide.hydrochloride]	63	9	4	239 to 242 °C		
CCN(Cc1ccncc1)C(=O)Cc1c(-c2ccc(Cl)cc2)nc2cc(C)ccn12.Cl [Compound 4, N-ethyl-N-(4-pyridinylmethyl)-2-(4-chlorophenyl)-7-methylimidazo[1,2-a]pyridine-3-acetamide.hydrochloride]	100	50	0	245 to 247 °C		
COCCN(Cc1ccccn1)C(=O)Cc1c(-c2ccc(C)cc2)nc2cc(C)ccn12.Cl [Compound 17, N-(2-methoxyethyl)-N-(2-pyridinylmethyl)-2-(4-methylphenyl)-7-methylimidazo[1,2-a]pyridine-3-acetamide.hydrochloride]	83	9	0	239 to 240 °C		
CCN(Cc1ccccn1)C(=O)Cc1c(-c2ccc(OC)cc2)nc2cc(C)ccn12.Cl [Compound 20, N-ethyl-N-(2-pyridinylmethyl)-2-(4-methoxyphenyl)-7-methylimidazo[1,2-a]pyridine-3-acetamide.hydrochloride]	61	63	0	228 to 230 °C		
CCN(Cc1ccncc1)C(=O)Cc1c(-c2ccc(C)cc2)nc2ccc(C)cn12.Cl [Compound 27, N-ethyl-N-(4-pyridinylmethyl)-2-(4-methylphenyl)-6-methylimidazo[1,2-a]pyridine-3-acetamide.hydrochloride]	91	65	0	222 to 224 °C		
CCN(Cc1ccncc1)C(=O)Cc1c(-c2ccc(C)cc2)nc2cc(C)ccn12.Cl [Compound 16, N-ethyl-N-(4-pyridinylmethyl)-2-(4-methylphenyl)-7-methylimidazo[1,2-a]pyridine-3-acetamide.hydrochloride]	72	41	0	253 to 255 °C		
COCCN(Cc1ccccn1)C(=O)Cc1c(-c2ccc(Cl)cc2)nc2cc(C)ccn12.Cl [Compound 5, N-(2-methoxyethyl)-N-(2-pyridinylmethyl)-2-(4-chlorophenyl)-7-methylimidazo[1,2-a]pyridine-3-acetamide.hydrochloride]	100	43	0	238 to 239 °C		
COCCN(Cc1cccnc1)C(=O)Cc1c(-c2ccc(C)cc2)nc2cc(C)ccn12.Cl [Compound 18, N-(2-methoxyethyl)-N-(3-pyridinylmethyl)-2-(4-methylphenyl)-7-methylimidazo[1,2-a]pyridine-3-acetamide.hydrochloride]	69	32	0	224 to 226 °C		
CCN(Cc1ccccn1)C(=O)Cc1c(-c2ccc(Cl)cc2)nc2cc(C)ccn12.Cl [Compound 2, N-ethyl-N-(2-pyridinylmethyl)-2-(4-chlorophenyl)-7-methylimidazo[1,2-a]pyridine-3-acetamide.hydrochloride]	100	59	0	178 to 180 °C		
CN1C(=O)CN=C(c2ccc(Cl)cc2)c2cc(Cl)ccc21 [Compound R05-4864, 4′-chlorodiazepam, reference compound]	100	82	57			
